Laboratory results: patent US7989467B2, “Use of indole-derived compounds for the preparation of a medicament that can be used to treat diseases related to the splicing process” (Centre National de la Recherche Scientifique (CNRS), priority 2003, dated 2011)

The compounds below were run on HIV (assay: Inhibition of HIV multiplication in PMA-stimulated U1 cells (RT-PCR of viral transcripts)). Conditions: 2.5 μM; 24 h; U1 cells treated with 50 nM PMA; FIG. 6.
Format: cell-based
From the text: To this end, human […] cell line U1, which is chronically infected by HIV (Folks et al., 1988. Characterization of a promonocyte clone chronically infected with HIV and inducible by 13-phorbol-12-myristate acetate. J. Immunol., 140: 1117-1122) and which produces large quantities of virus after stimulation by PMA (phorbol myristate acetate), was used. As a result, this cell line constitutes an excellent model to mimic the transition between the latency phase and the viral production phase observed in patients infected by HIV.
The results of this experiment are presented in FIG. 6 in which U1 cells (5×10^5) were treated with 50 nM of PMA in the absence (FIG. 6, lane 1) or in the presence of 2.5 μM of compounds C47, C97, C58, C57, C92, C91, C90, C83, C73, C34, C51, C45, C13, C10, C44, C6, C7, C41, C50, C32, C2, C1, C29, C35 and C99 (FIG. 6, lanes 3-27, respectively). After 24 h of treatment, the virus's transcripts were amplified by RT-PCR using specific VIH, BSS and SJ4.7A primers (Jacquenet et al., 2001, A second exon splicing silencer within human immunodeficiency virus type 1 tat exon 2 represses splicing of Tat mRNA and binds protein hnRNP. H. J. Biol. Chem. 276: 40464-75) and a radioactive tracer (α-32P) CTP.
In the case of `COc1cccc2c1ccc1c2[nH]c2c(C)cnc(N)c21` [C83, 4-methoxy-10-methyl-11H-benzo[g]pyrido[4,3-b]indol-7-ylamine], the “inhibition of HIV multiplication (amplification of viral transcripts)” value (shortened to “inhibition of HIV multiplication”) is reported as “excellent inhibitors of HIV multiplication”.
For `COc1ccc2c(ccc3c2[nH]c2c(C)cnc(NCCCN(C)CCCN)c23)c1` [C97, N-[3-(3-methoxy-10-methyl-11H-benzo[g]pyrido[4,3-b]indol-7-ylamino)-propyl]-N-methyl-propane-1,3-diamine], the “inhibition of HIV multiplication” value was “excellent inhibitors of HIV multiplication”.
For `CCN(CC)CCCNc1nccc2c(C)c3[nH]c4ccc(O)cc4c3cc12` [C35, 1-(3-diethylamino-propylamino)-5-methyl-6H-pyrido[4,3-b]carbazol-9-ol], the “inhibition of HIV multiplication” value was “excellent inhibitors of HIV multiplication”.
For `COc1ccc2c(ccc3[nH]c4c(C)cnc(NCCCN(C)C)c4c32)c1` [C92, N′-(3-methoxy-8-methyl-7H-benzo[e]pyrido[4,3-b]indol-11-yl)-N,N-dimethyl-propane-1,3-diamine], the “inhibition of HIV multiplication” value was “excellent inhibitors of HIV multiplication”.
With `COc1ccc2c(c1)c1c(C)c3c(NCCCN(C)C)nccc3c(C)c1n2C` [C1, N′-(9-methoxy-5,6,11-trimetyl-6H-pyrido[4,3-b]carbazol-1-yl)-N,N-dimethyl-propane-1,3-diamine] the “inhibition of HIV multiplication” value was “excellent inhibitors of HIV multiplication”.
`CCNCCCNc1nccc2c(C)c3c(cc12)c1cnccc1n3C` [C99, N-(5,6-dimethyl-5H-pyrido[3′4′:4,5]pyrrolo[2,3-g]isoquinolin-10-yl)-N′-ethyl-propane-1,3-diamine] was tested, and the “inhibition of HIV multiplication” value was “excellent inhibitors of HIV multiplication”.
For `COc1ccc2c(ccc3c2[nH]c2c(C)cnc(NCCCN)c23)c1` [C91, N-(3-methoxy-10-methyl-11H-benzo[g]pyrido[4,3-b]indol-7-yl)-propane-1,3-diamine], the “inhibition of HIV multiplication” value was “excellent inhibitors of HIV multiplication”.
`COc1ccc2c(ccc3c2[nH]c2c(C)cnc(NCCCCN)c23)c1` [C47, N-(3-methoxy-10-methyl-11H-benzo[g]pyrido[4,3-b]indol-7-yl)-butane-1,4-diamine] was tested, and the “inhibition of HIV multiplication” value was “excellent inhibitors of HIV multiplication”.
`CCN(CC)CCCNc1nccc2c(C)c3[nH]c4ccc(OC)cc4c3c(C)c12` [C41, N,N-diethyl-N′-(9-methoxy-5,11-dimethyl-6H-pyrido[4,3-b]carbazol-1-yl)-propane-1,3-diamine] was tested, and the “inhibition of HIV multiplication” value was “excellent inhibitors of HIV multiplication”.
With `CCN(CC)CC(O)CNc1nccc2c(C)c3[nH]c4ccc(OC)cc4c3cc12` (stereo not shown) [C44, 1-diethylamino-3-(9-methoxy-5-methyl-6H-pyrido[4,3-b]carbazol-1-ylamino)-propan-2-ol] the “inhibition of HIV multiplication” value was “excellent inhibitors of HIV multiplication”.
`Cc1c2ccnc(NCCCN(C)C)c2cc2c3cnccc3n(C)c12` [C32, N′-(5,6-dimethyl-5H-pyrido[3′4′:4,5]pyrrolo[2,3-g]isoquinolin-10-yl)-N,N-dimethyl-propane-1,3-diamine] was tested, and the “inhibition of HIV multiplication” value was “excellent inhibitors of HIV multiplication”.
For `CCN(CC)CCCNc1nccc2c(C)c3[nH]c4ccncc4c3cc12` [C51, N-N,diethyl-N′-(6-methyl-5H-pyrido[3′,4′:4,5]pyrrolo[2,3-g]isoquinolin-10-yl)-propane-1,3-diamine], the “inhibition of HIV multiplication” value was “excellent inhibitors of HIV multiplication”.
For `CCN(CC)CCNc1nccc2c(C)c3c(c(C)c12)c1cc(OC)ccc1n3C` [C29, N,N-diethyl-N′-(9-methoxy-5,6,11-trimethyl-6H-pyrido[4,3-b]carbazol-1-yl)-ethane-1,2-diamine], the “inhibition of HIV multiplication” value was “excellent inhibitors of HIV multiplication”.
For `COc1ccc2[nH]c3c(C)c4ccnc(NCCCCCCNc5c6cc7c([nH]c8ccc(OC)cc87)c(C)c6cc[n+]5C)c4cc3c2c1.[I-]` [C13, 9-methoxy-1-[6-(9-methoxy-5-methyl-6H-pyrido[4,3-b]carbazol-1-ylamino)-hexylamino]-2,5-dimethyl-6H-pyrido[4,3-b]carbazol-2-ium iodide], the “inhibition of HIV multiplication” value was “excellent inhibitors of HIV multiplication”.
`C=CCNc1nccc2c(C)c3[nH]c4ccc(OC)cc4c3c(C)c12` [C10, allyl-(9-methoxy-5,11-dimethyl-6H-pyrido[4,3-b]carbazol-1-yl)-amine] was tested, and the “inhibition of HIV multiplication” value was “excellent inhibitors of HIV multiplication”.

What follows are compounds tested against T1, SRp55 (Homo sapiens, UniProt Q13247) (assay: In vitro splicing results, Table 3: SRp55). Conditions: summary of Table 3.
T1 sequence (Q13247 1-344): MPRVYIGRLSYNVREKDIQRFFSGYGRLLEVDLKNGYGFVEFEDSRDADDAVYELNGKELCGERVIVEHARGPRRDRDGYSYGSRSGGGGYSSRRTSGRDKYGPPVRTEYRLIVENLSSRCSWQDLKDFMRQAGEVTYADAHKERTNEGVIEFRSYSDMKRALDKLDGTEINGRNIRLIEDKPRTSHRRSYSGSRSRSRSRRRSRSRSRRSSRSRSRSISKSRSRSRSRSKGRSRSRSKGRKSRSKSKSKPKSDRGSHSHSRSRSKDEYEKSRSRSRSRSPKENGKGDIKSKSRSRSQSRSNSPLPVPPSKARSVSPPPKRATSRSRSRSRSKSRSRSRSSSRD
Format: biochemical
For `Cc1cnc(NCCCN(C)C)c2c1[nH]c1c3cccc(O)c3ccc12` [C76, 7-(3-dimethylamino-propylamino)-10-methyl-11H-benzo[g]pyrido[4,3-b]indol-4-ol], the “inhibit the activity of the SRp55 protein specifically” value (“inhibit the activity” below) was “inhibit the activity of the SRp55 protein specifically”.
In the case of `COc1cccc2c1ccc1[nH]c3c(C)cnc(NCCCN(C)C)c3c12` [C93, N′-(4-methoxy-8-methyl-7H-benzo[e]pyrido[4,3-b]indol-11-yl)-N,N-dimethyl-propane-1,3-diamine], the “inhibit the activity” value is reported as “inhibit the activity of the SRp55 protein specifically”.
`Cc1cnc(NCC(C)CN(C)C)c2c1[nH]c1ccc3cc(O)ccc3c12` (stereo not shown) [C88, 11-(3-dimethylamino-2-methyl-propylamino)-8-methyl-7H-benzo[e]pyrido[4,3-b]indol-3-ol] was tested, and the “inhibit the activity” value was “inhibit the activity of the SRp55 protein specifically”.
In the case of `COc1ccc2[nH]c3c(C)c4ccnc(NCCN5CCCC5)c4cc3c2c1` [C42, (9-methoxy-5-methyl-6H-pyrido[4,3-b]carbazol-1-yl)-(2-pyrrolidin-1-yl-ethyl)-amine], the “inhibit the activity” value is reported as “inhibit the activity of the SRp55 protein specifically”.
`COc1ccc2ccc3[nH]c4c(C)cnc(NCCCN(C)C)c4c3c2c1` [C77, N′-(2-methoxy-8-methyl-7H-benzo[e]pyrido[4,3-b]indol-11-yl)-N,N-dimethyl-propane-1,3-diamine] was tested, and the “inhibit the activity” value was “inhibit the activity of the SRp55 protein specifically”.
With `COc1cccc2c1ccc1c3c(NCCCN(C)C)ncc(C)c3n(C)c21` [C85, N′-(4-methoxy-10,11-dimethyl-11H-benzo[g]pyrido[4,3-b]indol-7-yl)-N,N-dimethyl-propane-1,3-diamine] the “inhibit the activity” value was “inhibit the activity of the SRp55 protein specifically”.
With `CCN(CC)CCCNc1ncc(C)c2c1c1ccc3ccccc3c1n2C` [C78, N′-(10,11-dimethyl-11H-benzo[g]pyrido[4,3-b]indol-7-yl)-N,N-diethyl-propane-1,3-diamine] the “inhibit the activity” value was “inhibit the activity of the SRp55 protein specifically”.
For `Cc1cnc(NCCCN(C)C)c2c3c4ccccc4ccc3n(C)c12` [C79, N′-(7,8-dimethyl-7H-benzo[e]pyrido[4,3-b]indol-11-yl)-N,N-dimethyl-propane-1,3-diamine], the “inhibit the activity” value was “inhibit the activity of the SRp55 protein specifically”.
`CCN(CC)CCCNc1ncc(C)c2[nH]c3c4ccccc4ccc3c12` [C82, N,N-diethyl-N′-(10-methyl-11H-benzo[g]pyrido[4,3-b]indol-7-yl)-propane-1,3-diamine] was tested, and the “inhibit the activity” value was “inhibit the activity of the SRp55 protein specifically”.
With `Cc1cnc(NCCCN(C)C)c2c1[nH]c1c3ccccc3ccc12` [C80, N,N-dimethyl-N′-(10-methyl-11H-benzo[g]pyrido[4,3-b]indoi-7-yl)-propane-1,3-diamine] the “inhibit the activity” value was “inhibit the activity of the SRp55 protein specifically”.
With `Cc1c2ccnc(NCCC(C)C)c2c(C)c2c1[nH]c1ccc(O)cc12` [C19, 5,11-dimethyl-1-(3-methyl-butylamino)-6H-pyrido[4,3-b]carbazol-9-ol] the “inhibit the activity” value was “inhibit the activity of the SRp55 protein specifically”.
For `Cc1cnc(NCCCN(C)C)c2c1[nH]c1ccc3ccccc3c12` [C87, N,N-dimethyl-N′-(8-methyl-7H-benzo[e]pyrido[4,3-b]indol-11-yl)-propane-1,3-diamine], the “inhibit the activity” value was “inhibit the activity of the SRp55 protein specifically”.
In the case of `COc1ccc2c(ccc3[nH]c4c(C)cnc(NCCCCCCN)c4c32)c1` [C95, N-(3-methoxy-8-methyl-7H-benzo[e]pyrido[4,3-b]indol-11-yl)-hexane-1,6-diamine], the “inhibit the activity” value is reported as “inhibit the activity of the SRp55 protein specifically”.
